Laboratory results from the NIST ThermoML archive (doi:10.1016/j.jct.2015.09.029).
± gives the expanded uncertainty stated by the source.

Experiments:
[1] = 100 kPa, Liquid, Capillary tube (Ostwald / Ubbelohde) method
[2] = mn = molality of the nth substance listed, in mol/kg; settings: 100 kPa, Liquid; for viscosity: Capillary tube (Ostwald / Ubbelohde) method; for speed of sound: Frequency=2 MHz, Linear variable-path acoustic interferometer

SMILES	viscosity ([2]; 298.15 K, m2 = 0) [mPa·s]	speed of sound ([2]; 298.15 K, m2 = 0) [m/s]	viscosity ([2]; 303.15 K, m2 = 0) [mPa·s]	viscosity ([2]; 308.15 K, m2 = 0) [mPa·s]	viscosity ([2]; 313.15 K, m2 = 0) [mPa·s]	speed of sound ([2]; 313.15 K, m2 = 0) [m/s]	other results
O [water]	–	–	–	–	–	–	viscosity ([1]; 298.15 K): 0.8905 ± 0.019 mPa·s; viscosity ([1]; 303.15 K): 0.7977 ± 0.017 mPa·s; viscosity ([1]; 308.15 K): 0.7195 ± 0.015 mPa·s; viscosity ([1]; 313.15 K): 0.6532 ± 0.014 mPa·s
O [water] + CCCC[P+](C)(CCCC)CCCC.COS(=O)(=O)[O-]	0.8905 ± 0.019	1497.6 ± 4.3	0.7977 ± 0.017	0.7195 ± 0.015	0.6532 ± 0.014	1528.5 ± 4.3	–
O [water] + CCCCn1cc[n+](C)c1.[Cl-]	0.8905 ± 0.019	–	–	–	–	–	–
O [water] + CC(C)C[P+](C)(CC(C)C)CC(C)C.Cc1ccc(S(=O)(=O)[O-])cc1	0.8905 ± 0.019	1497.6 ± 4.3	0.7977 ± 0.017	0.7195 ± 0.015	0.6532 ± 0.014	1528.5 ± 4.3	–
O [water] + CCCC[P+](CCCC)(CCCC)CCCC.[Cl-]	0.8905 ± 0.019	1497.6 ± 4.3	0.7977 ± 0.017	0.7195 ± 0.015	0.6532 ± 0.014	1528.5 ± 4.3	–
CCCCn1cc[n+](C)c1.[Cl-] [1-butyl-3-methylimidazolium chloride] + O	–	–	–	–	–	–	viscosity ([2]; 298.15 K, m1 = 0.0155): 0.8976 ± 0.019 mPa·s; viscosity ([2]; 298.15 K, m1 = 0.0257): 0.9023 ± 0.019 mPa·s; viscosity ([2]; 298.15 K, m1 = 0.0567): 0.9166 ± 0.019 mPa·s; viscosity ([2]; 298.15 K, m1 = 0.0653): 0.9205 ± 0.019 mPa·s; viscosity ([2]; 298.15 K, m1 = 0.0782): 0.9265 ± 0.019 mPa·s; viscosity ([2]; 298.15 K, m1 = 0.0895): 0.9317 ± 0.019 mPa·s; viscosity ([2]; 298.15 K, m1 = 0.0923): 0.933 ± 0.019 mPa·s; viscosity ([2]; 298.15 K, m1 = 0.1052): 0.9389 ± 0.02 mPa·s; viscosity ([2]; 298.15 K, m1 = 0.1123): 0.9422 ± 0.02 mPa·s
